Source: patent US8119667B2, “Carbonates of fenicol antibiotics” (Schering-Plough Animal Health Corporation, priority 2005, dated 2012)
Converted amounts (≈) assume the structure as drawn.

Assays:
[1] = Solubility in triacetin/benzyl alcohol 2:1 (volume/volume) solvent mixture; assay type: physicochemical; details: 20° C.
Experimental: Florfenicol parent drug was not soluble in triacetin/benzyl alcohol 2:1 (volume/volume) even at concentrations as low as 10% (weight/volume). […] The combination of prodrug of Example 14 at 275 mg/ml and florfenicol at 100 mg/ml was soluble in triacetin/benzyl alcohol 2:1 (volume/volume) and provided a stable solution with 30% (weight/volume) content of florfenicol (Table 4, supra, entry 12).

[2] = In vitro enzymatic release of parent florfenicol from prodrugs in bovine serum; assay type: in vitro ADME; details: for Florfenicol released from prodrugs (% of total) after treatment with bovine serum: 37° C.; for rates of florfenicol release in serum: bovine serum, among the compounds tested
Source text: The ability of a prodrug derivative of a parent drug molecule to act efficiently in vivo as a source of the free parent drug determines the utility of a particular prodrug for treatment. The prodrug's ability to release the parent drug in vivo, in the presence of endogenous enzymes, can be determined by measuring the systemic levels of the parent drug after administration of the prodrug to the animal. This releasibility can also be assessed in vitro by measuring the release of the parent drug after mixing with animal whole blood, plasma or serum. Selected benzylic carbonate prodrugs of florfenicol were tested for release of florfenicol after in vitro mixing with bovine serum. […] A general trend of more lipophilic carbonates of florfenicol showing higher rates of degradation and release seems to be present among the compounds tested.
50 microliter of stock solution of carbonate pro-drug (10 mg/mL in DMSO) was added to 5 mL donor bovine serum and mixed. Aliquots of 400 microliter of the resulting solution were transferred into 1.5 mL plastic centrifuge tubes. Each plastic tube was placed into at 37° C. water bath for incubation. Samples were removed at 0, 1, 2, 4, 8, and 24 hours, and after addition of 400 microliter of acetonitrile to stop the reaction, rapidly stirred for 30 seconds. The precipitate was removed by centrifugation on an Eppendorf 5415G at 14000 rpm for 5 minutes. The clear supernatant solution was sampled for the HPLC analysis. The peak area of florfenicol was used to calculate the conversion of the prodrugs.

[3] = Syringeability of dosing solutions (dripping-syringe method); assay type: physicochemical
Experimental: Table 4, below, provides evaluations of the syringeability of dosing solutions of selected florfenicol benzylic carbonate prodrugs at concentrations equivalent to 300 mg/ml florfenicol (30% weight/volume).
High concentrations of fenicol or fenicol drug contained in a fenicol prodrug are often necessary for convenient administration of the necessary amount of the desired amount of the antibiotic. Due to the limited solubility of fenicols in many organic solvents or mixtures of solvents acceptable for injectable formulations the choice of solvents for preparation of highly concentrated florfenicol solutions is limited. As a result highly concentrated solutions of fenicol drugs in organic solvents or solvent mixtures may become highly viscous and difficult to administer by a syringe. Therefore the ability of fenicol benzylic carbonate prodrugs to dissolve in a wider range of organic solvents or mixtures of solvents acceptable for injectable formulations offered the potential to prepare highly concentrated solutions for injections with lower viscosity. […] Test solutions of florfenicol benzylic carbonates containing concentrations of florfenicol (mg/mL) equivalent to the concentration present in Nuflor® formulation were prepared. Syringeabilities of the solutions were evaluated by means of the “dripping syringe” method in which the dripping times (sec) of equal volumes of such solutions under free gravitational flow conditions from a vertically positioned syringe were measured at 15° C. After removing the plunger from a 5 ml polyethylene disposable syringe (5 ml Luer, Norm-Ject Zentrish/Henke Saas Wolf GMBH) and fitting the syringe with a disposable needle (B-D® 16G1 Precision Glide/BentonDickinson & CO) the test solutions were loaded from the top into the syringe and the time necessary for the free flow of 2 mL of solution (between 3 ml and 1 ml marks) was recorded in triplicate. The syringeabilities relative to Nuflor® were calculated by dividing the dripping time for the test solutions (entries 1-12) by the dripping time measured for the commercial sample of Nuflor® formulation (entry 13) As it is evident from the results in Table 4 the syringeabilities of tested solutions containing benzyl alcohol as viscosity diluent had relative syringeabilities <1.00 and were therefore better than Nuflor® (30% weight/volume florfenicol solution in propylene glycol/polyethylene glycol 300/2-methyl pyrolidinone). Due to their better syringeability these solutions represent more favorable formulations for injectable delivery of florfenicol. Solution of the florfenicol benzylic carbonate of the example 2 in triacetin/2-pyrolidinone—1/1 lacking the benzyl alcohol viscosity diluent was the only solution with syringeability poorer that than that of Nuflor® (entry 5).

[4] = Aqueous solubility; assay type: physicochemical; details: aqueous medium (not further specified)
Experimental: In some therapeutic applications florfenicol is administered in concentrated organic solution subcutaneously where it is known to form localized depot of the drug which results in the desired sustained release of the drug into the circulation. In such cases solubility of florfenicol in aqueous media represents one of important factors determining the rate of the sustained release. Another important factor affecting the sustained release of florfenicol from the subcutaneous depot site is the concentration of the dosing solution and the solvent composition of the formulation. Apart from the broader range of solvents which can be used for acceptable formulations of florfenicol benzylic carbonate prodrugs these prodrugs also allow a wide range of aqueous solubilities. Solubilities achieved with these prodrugs range from slightly to dramatically lower than that of florfenicol. Reduced aqueous solubilities of such prodrugs may be useful in controlling the rate of dissolution of the prodrug at the subcutaneous depot site and may allow achieving optimized sustained release of the parent drug.

[5] = prodrug concentration equivalent to 300 mg/ml florfenicol, Triacetin/benzyl alcohol - 2:1 (vol/vol), 15° C.
[6] = prodrug concentration equivalent to 300 mg/ml florfenicol, Triacetin/benzyl alcohol - 2:1 (vol/vol), free flow of 2 mL at 15° C.
[7] = 300 mg/ml, N-methyl 2-pyrolidinone/propylene glycol/polyethylene glycol 300, 15° C.
[8] = prodrug concentration equivalent to 300 mg/ml florfenicol, Triacetin/benzyl alcohol/2-pyrolidinone - 2:1:1.5, 15° C.

Row | Compound | Solubility at selected concentration of contained florfenicol ([1]; 10% weight/volume florfenicol) | Solubility at selected concentration of contained florfenicol ([1]; 20% weight/volume florfenicol) | Solubility at selected concentration of contained florfenicol ([1]; 25% weight/volume florfenicol) | Solubility at selected concentration of contained florfenicol ([1]; 30% weight/volume florfenicol) | Solubility at selected concentration of contained florfenicol ([1]; 35% weight/volume florfenicol) | Solubility at selected concentration of contained florfenicol ([1]; 37% weight/volume florfenicol) | Solubility at selected concentration of contained florfenicol ([1]; 40% weight/volume florfenicol) | melting point | Florfenicol released from prodrugs (% of total) after treatment with bovine serum ([2]; 0 h) | solubility [4] | also measured
1 | CS(=O)(=O)c1ccc([C@@H](OC(=O)OCCOC(=O)O[C@H](c2ccc(S(C)(=O)=O)cc2)[C@@H](CF)NC(=O)C(Cl)Cl)[C@@H](CF)NC(=O)C(Cl)Cl)cc1 [Example 26, Bis((1R,2S)-2-(2,2-dichloroacetamido)-3-fluoro-1-(4-(methylsulfonyl)phenyl)propyl)ethane-1,2-diyl dicarbonate] | soluble | soluble | soluble | soluble | soluble | soluble | soluble | 110 to 112 °C | BQL | 45 µg/mL (≈ 54.2 µM) | Florfenicol released from prodrugs (% of total) after treatment with bovine serum ([2]; 1 h): BQL; Syringeability measurement: Relative to NUFLOR [3, 5]: 0.93; Syringeability measurement: Dripping time [3, 6]: 216 ± 8 s
2 | CS(=O)(=O)c1ccc([C@@H](O)[C@@H](CF)NC(=O)C(Cl)Cl)cc1 [Florfenicol, D-(threo)-1-(4-methylsulfonylphenyl)-2-dichloroacetamido-3-fluoro-1-propanol, reference compound] | not soluble | insoluble | insoluble | insoluble | insoluble | insoluble | insoluble | – | – | 1530 µg/mL (≈ 4270 µM) | Solubility at selected concentration of contained florfenicol ([1]; 10% weight/volume florfenicol, listed as florfenicol): insoluble; Syringeability measurement: Dripping time [3, 7]: 233 ± 2 s; Syringeability measurement: Relative to NUFLOR [3, 7]: 1.00
3 | CC(C)COC(=O)O[C@H](c1ccc(S(C)(=O)=O)cc1)[C@@H](CF)NC(=O)C(Cl)Cl [Example 5, (1R,2S)-2-(2,2-dichloroacetamido)-3-fluoro-1-(4-(methylsulfonyl)phenyl)propyl isobutyl carbonate] | – | – | – | – | – | – | – | 156 to 158 °C | – | 7 µg/mL (≈ 15.3 µM) | –
4 | CS(=O)(=O)c1ccc([C@@H](OC(=O)OCC2CC2)[C@@H](CF)NC(=O)C(Cl)Cl)cc1 [Example 6, Cyclopropylmethyl(1R,2S)-2-(2,2-dichloroacetamido)-3-fluoro-1-(4-(methylsulfonyl)phenyl)propyl carbonate] | – | – | – | – | – | – | – | 132 to 134 °C | – | 120 µg/mL (≈ 263 µM) | –
5 | COCCOC(=O)O[C@H](c1ccc(S(C)(=O)=O)cc1)[C@@H](CF)NC(=O)C(Cl)Cl [Example 11, (1R,2S)-2-(2,2-dichloroacetamido)-3-fluoro-1-(4-(methylsulfonyl)phenyl)propyl 2-methoxyethyl carbonate] | – | – | – | – | – | – | – | – | – | 770 µg/mL (≈ 1670 µM) | –
6 | CC(C)CCOC(=O)O[C@H](c1ccc(S(C)(=O)=O)cc1)[C@@H](CF)NC(=O)C(Cl)Cl [Example 8, (1R,2S)-2-(2,2-dichloroacetamido)-3-fluoro-1-(4-(methylsulfonyl)phenyl)propyl isopentyl carbonate] | – | – | – | – | – | – | – | 120 to 122 °C | BQL | 25 µg/mL (≈ 52.9 µM) | rates of florfenicol release in serum [2]: highest rates; Syringeability measurement: Dripping time [3, 8]: 157 ± 1 s; Syringeability measurement: Relative to NUFLOR [3, 8]: 0.67
7 | CC(C)OC(=O)O[C@H](c1ccc(S(C)(=O)=O)cc1)[C@@H](CF)NC(=O)C(Cl)Cl [Example 4, (1R,2S)-2-(2,2-dichloroacetamido)-3-fluoro-1-(4-(methylsulfonyl)phenyl)propyl isopropyl carbonate] | – | – | – | – | – | – | – | 148 to 150 °C | BQL | 100 µg/mL (≈ 225 µM) | Florfenicol released from prodrugs (% of total) after treatment with bovine serum ([2]; 1 h): BQL; Florfenicol released from prodrugs (% of total) after treatment with bovine serum ([2]; 2 h): BQL; Syringeability measurement: Dripping time [3, 8]: 164 ± 3 s; Syringeability measurement: Relative to NUFLOR [3, 8]: 0.70
8 | CCOC(=O)[C@H](C)OC(=O)O[C@H](c1ccc(S(C)(=O)=O)cc1)[C@@H](CF)NC(=O)C(Cl)Cl [Example 17] | – | – | – | – | – | – | – | 44 to 54 °C | – | 550 µg/mL (≈ 1090 µM) | –
9 | CS(=O)(=O)c1ccc([C@@H](OC(=O)OCc2ccccc2)[C@@H](CF)NC(=O)C(Cl)Cl)cc1 [Example 14, Benzyl(1R,2S)-2-(2,2-dichloroacetamido)-3-fluoro-1-(4-(methylsulfonyl)phenyl)propyl carbonate] | soluble | soluble | soluble | soluble | soluble | soluble | insoluble | 105 to 106 °C | BQL | 32 µg/mL (≈ 65 µM) | rates of florfenicol release in serum [2]: highest rates; Syringeability measurement: Relative to NUFLOR [3, 5]: 0.88; Syringeability measurement: Dripping time [3, 6]: 204 ± 9 s
10 | CCCCOCCOC(=O)O[C@H](c1ccc(S(C)(=O)=O)cc1)[C@@H](CF)NC(=O)C(Cl)Cl [Example 13, (1R,2S)-2-(2,2-dichloroacetamido)-3-fluoro-1-(4-(methylsulfonyl)phenyl)propyl 2-butoxyethyl carbonate] | soluble | soluble | soluble | soluble | soluble | soluble | soluble | – | BQL | 150 µg/mL (≈ 299 µM) | Florfenicol released from prodrugs (% of total) after treatment with bovine serum ([2]; 1 h): BQL; Syringeability measurement: Relative to NUFLOR [3, 5]: 0.61; Syringeability measurement: Dripping time [3, 6]: 141 ± 5 s
11 | CCOCCOC(=O)O[C@H](c1ccc(S(C)(=O)=O)cc1)[C@@H](CF)NC(=O)C(Cl)Cl [Example 12, (1R,2S)-2-(2,2-dichloroacetamido)-3-fluoro-1-(4-(methylsulfonyl)phenyl)propyl 2-ethoxyethyl carbonate] | – | – | – | – | – | – | – | 88 to 90 °C | – | 350 µg/mL (≈ 738 µM) | –
